Like-named read-outs stand apart in the source and are kept apart here. Marks after values point to notes of the source that are not given here.
Key:
[1] = summarized from TERIS and Briggs et al. 2011, cited from earlier work; for Preclinical in vivo developmental effects: application set compounds
[2] = tested on: WA09 hES cells; assay: Phase 2 targeted biomarker assay, ornithine/cystine ratio, 9-point dose response
Text: Undifferentiated hES Cell Line Maintenance (Phases 1 and 2). WA09 hES cells were obtained from the WiCell Research Institute (Madison, Wis.) and were maintained in feeder free conditions using mTeSR1 media (StemCell Technologies, Inc., Vancouver, BC, Canada) on hESC-qualified Matrigel (BD Biosciences, San Jose, Calif.) coated 6-well plates. To maintain the undifferentiated stem cell population, differentiated colonies were removed daily through aspiration and media was replaced. Additionally, the hES cells were only used in experiments up to passage 40 and were karyotyped approximately every 10 passages to minimize and monitor the potential for genetic instability. hES cells were passaged at 90-95% confluency (approximately every 7 days) using Versene (Life Technologies, Grand Island, N.Y.). Cell cultures were maintained at 37° C. under 5% CO2.
96-well hES Cell Plating (Phases 1 and 2). All experimental treatments were carried out in 96-well plates. To minimize plating variability and increase reproducibility, hES cells were plated as a single cell suspension and maintained in an undifferentiated state during compound exposure. Prior to plating in the 96-well plates, hES cells were removed from a 6-well plate using TrypLE (Life Technologies). The cells were washed with DMEM/F12 (Life Technologies) and resuspended in mTeSR1 containing 10 μM Y27632 Rho-associated kinase (ROCK) inhibitor (Merck KGaA/Calbiochem, Darmstadt, Germany). The ROCK inhibitor is added to the plating media to increase plating efficiency by decreasing dissociation-induced apoptosis. The inner 60 wells of hESC-qualified Matrigel coated 96-well plates were seeded at a density of 100,000 cells per well. The outer wells of the plate contained an equal volume media to minimize differences in humidity across the plate. Compound exposure began 24 hours after plating.
(§1) Phase 2 hES Cell Compound Exposure. […] The standard compound exposure levels used for most compounds were nine, 3-fold dilutions ranging from 0.04 μM-300 μM (FIG. 1B). […] The stock solution was diluted 1:1000 in mTeSR1 media and subsequent dilutions were performed in mTeSR1 containing 0.1% DMSO such that the final concentration of DMSO was 0.1% in all treatments. hES cells were treated for 72 hours and spent media from the last 24-hour treatment period was collected and added to acetonitrile containing ^13C6 labeled arginine (Cambridge Isotope Laboratories, Andover, Md.) as described under Phase 1. Spent media samples were stored at −80° C. until prepared for LC-HRMS analysis. Cell viability was assessed using the CellTiter-Fluor Cell Viability Assay. A quality control step was included with criteria that the CV of the measured viability RFU of the DMSO control cells could not exceed 10% for a plate to undergo LC-HRMS analysis. A dose response curve was fit to the reference treatment (0.1% DMSO treated control cells) normalized data (Viability RFUTrt X/Viability RFUDMSO) using a four-parameter log-logistic model with the R package “drc” (Ritz and Streibig, 2005, J Statistical Software; 12:1-22).
Sample Preparation (Phases 1 and 2). High molecular weight constituents (>10 KDa) of the spent media samples were removed using a Millipore Multiscreen Ultracel-10 filter plate (EMD Millipore, Billerica, Mass.). Prior to sample filtration, the filter plate was washed with 0.1% NaOH to remove a known contaminant polymer. The plate was then rinsed twice with HPLC-grade water to remove residual polymers and NaOH. Spent media samples were added to the washed filter plate. In Phase 1, samples were spiked with ^13C6 labeled arginine. Samples were centrifuged at 2,000×g at 4° C. for 200 minutes. The filtrate was collected and concentrated overnight in a Savant High Capacity Speedvac Plus Concentrator.

[3] = tested on: Rabbit; details: cited from earlier work
[4] = tested on: mouse embryonic stem cell; details: cited from earlier work
[5] = tested on: WA09 hES cells
Experimental: Phase I hES Cell Compound Exposure. hES cells were treated with a test compound at a single concentration equivalent to the compound's published therapeutic Cmax. […] This was done to ensure that enough cells were present at the time of sample collection to provide a signal for LC-HRMS analysis. For test compound exposure, all compound stock solutions, with the exception of valproic acid, were made with DMSO (Sigma-Aldrich). […] Each 96-well plate included media controls with and without test compound, 0.1% DMSO solvent control cells and cells exposed to a single concentration of eight different test compounds (FIG. 1A). Media controls were included on each plate to assess the impact of test compound on the sample matrix. hES cells were exposed to the test compound for 72 hours, with media and test compound replacement every 24 hours. Cells were monitored throughout the treatment period to ensure that no differentiation was occurring. After 72 hours of treatment, the spent media from the final 24-hour treatment period was collected and added to acetonitrile (Sigma-Aldrich, final acetonitrile concentration 40%), to halt metabolic processes and precipitate proteins from solution. Individual wells from each 96-well plate were collected and analyzed as separate samples. These samples were then stored at −80° C. until prepared for LC-HRMS analysis. Cell viability was assessed using the CellTiter-Fluor Cell Viability Assay as per the manufacturer's instructions (Promega, Madison, Wis.). Quality control parameters were set such that if the coefficient of variation (CV) for the viability relative fluorescent units (RFU) of the 6 cellular samples in a treatment exceeded 10% and no outliers were identified using the Grubb's test (see the worldwide web at graphpad.com/quickcalcs/Grubbs1.cfm), analysis was halted for that compound and the cell culture experiment was repeated. If outliers were present, the outlier sample was removed from analysis. If the CV for the DMSO control cell samples on a plate were outside of the quality control parameters, the entire plate was repeated. hES cell exposure to each of the 23 compounds was replicated a total of nine times.
as §1
Phase 2 Prediction of Developmental Toxicity Potential. […] FIG. 2 illustrates how the assay is applied in this situation. A test compound is considered to be teratogenic at the exposure level where the o/c ratio exceeds the teratogenicity threshold (red box, FIG. 2).

[6] = tested on: Rodent; details: cited from earlier work; for Rodent in vivo test results: Embryotoxic: embryotoxic effect in the absence of teratogenic effects and maternal toxicity
[7] = tested on: rat whole embryo; details: cited from earlier work
[8] = tested on: Humans; details: cited from earlier work; for Humans (known human developmental toxicity): training and test set; for Known Effect: validation and test set treatments of Example 2
[9] = cited from earlier work
[10] = tested on: zebrafish; details: training and test set; weak/moderate and strong teratogens both labeled teratogen; cited from earlier work
[11] = tested on: hES cells; assay: ADMA/cystine ratio simplified predictive model in hES cell spent media; assay type: cell-based, human; details: single dose per treatment; ratios less than 0.9 indicate teratogenicity
Text: (§2) This simplified model is based on a ratio of the reference treatment (DMSO) normalized values of ADMA and cystine.
The X-axis is the reference normalized ratio of ADMA/Cystine. The y-axis is the training set of pharmaceuticals. Grey color with triangle glyphs represents teratogens and black color with circle glyphs represents non-teratogens. Each glyph point represents the media value of an independent experimental block (6 reps per block). The crosshair glyphs mark the sample medians. In FIG. 9, grey vertical line is threshold of teratogenicity, grey horizontal lines are the median absolute deviations, and black vertical line designates 1.0. The arrows at the bottom indicate the values used for differentiation of teratogens and nonteratogens, utilizing a cut off of 0.9 (grey line).

[12] = tested on: hES cells; assay: devTOX computational model predictions (Version 2.0, Version 2.1) from hES cell metabolomics; assay type: cell-based, human; details: single dose per treatment (Dose column)
Text: The selection process weighted the predictive capacity of a feature, overall intensity, and peak shape to identify very well behaved features/metabolites that could be measured by targeted LC-MS or even by other detection systems.
as §2

[13] = application set, made using the therapeutic Cmax when available
[14] = test set, therapeutic peak plasma in vivo concentration, human
[15] = training and test set, weak/moderate and strong teratogens both labeled teratogen
[16] = training set, therapeutic peak plasma in vivo concentration, human
[17] = application set, peak plasma concentration in humans
[18] = test set, interpolated concentration where cell viability dose response curve crosses teratogenicity threshold 0.88, 72 hours
[19] = test set, teratogenicity potential scored against therapeutic Cmax

| Compound | Preclinical in vivo developmental effects [1] | Rabbit prediction ([3]; application set) | Rodent prediction ([6]; application set) | WEC prediction ([7]; application set) | Preclinical in vivo and known human developmental effects ([1]; test set compounds) | O/C Ratio Prediction [2] | Targeted Biomarker Assay prediction [2] | Teratogenicity Potential (μM) O/C Ratio ([2]; human, 72 h) | Humans (known human developmental toxicity) [8] | Viability Prediction [5] | Teratogenicity Potential (μM) Cell Viability ([5]; human, 72 h) | Rodent prediction ([6]; training and test set) | Cmax [9, 14] | ZET prediction [10] | WEC prediction [7, 15] | Rabbit prediction ([3]; training and test set) | mEST prediction [4, 15] | other results |
| --- | --- | --- | --- | --- | --- | --- | --- | --- | --- | --- | --- | --- | --- | --- | --- | --- | --- | --- |
| NC(=O)c1ccc(N)nc1 [6-Aminonicotinamide] | Craniofacial | TER | TER | TER^d |  |  |  |  |  |  |  |  |  |  |  |  |  | Teratogenicity Potential (μM) O/C Ratio ([2]; application set, interpolated concentration where o/c ratio dose response curve crosses teratogenicity threshold 0.88, 72 hours): <0.04 µM; Targeted Biomarker Assay prediction [2, 13]: TER; mEST prediction ([4]; application set): TER^c; Teratogenicity Potential (μM) Cell Viability ([5]; application set, interpolated concentration where cell viability dose response curve crosses teratogenicity threshold 0.88, 72 hours): 24.5 µM; Rodent in vivo test results: Teratogenic ([6]; application set, structural malformations in the absence of maternal toxicity): +^d |
| CC(=O)Nc1ccc(O)cc1 [Acetaminophen] |  |  |  |  | None | NON | NON | >300 µM | NON | NON | >300 µM | NON | 116 µM | NON^e | TER^k |  |  |  |
| CS(=O)(=O)OCCCCOS(C)(=O)=O [Busulfan] |  |  |  |  |  | TER | TER | 0.6 µM | TER | TER | 3 µM | TER |  |  | TER^j | TER | TER^i | Model Predictions ADMA/Cystine [11]: Ter; Preclinical in vivo and known human developmental effects ([1]; training set compounds): Craniofacial, limb, embryo; Known Effect [8]: Ter; Cytotoxicity at the Cmax exposure level ([5]; human, 72 h): greater than 30%; Cmax [9, 16]: 49.6 µM; Model Predictions Version 2.0 [12]: Ter; Model Predictions Version 2.1 [12]: Ter |
| CC(C)(S)[C@@H](N)C(=O)O [D-Penicillamine] |  |  |  |  | Skeletal | TER | TER | <0.04 µM | TER | NON | >300 µM | TER | 13.4 µM | NON^d | NON^f |  | NON^m | Classification by o/c ratio in the targeted biomarker assay [2]: correctly classify |
| CNCCC(Oc1ccc(C(F)(F)F)cc1)c1ccccc1 (centres unmarked) [Fluoxetine] | Embryo toxicity^c | NON | TER | NON^f,g |  |  | NON | 25.1 µM |  |  | 23 µM |  |  |  |  |  |  | mEST prediction ([4]; application set): TER^e; Rodent in vivo test results: Embryotoxic ([6]; application set): +; Cmax [9, 17]: 0.04 µM |
| CCOC(=O)N1CCC(=C2c3ccc(Cl)cc3CCc3cccnc32)CC1 [Loratadine] |  |  |  |  | None |  |  |  |  |  |  | NON |  | TER^d | NON^f,j | NON | NON^i | Targeted Biomarker Assay prediction ([2]; training and test set, o/c ratio scored against therapeutic Cmax): NON; Teratogenicity Potential (μM) Cell Viability [5, 18]: 76.3 µM; Viability Prediction [5, 19]: NON |
| CN(CCOc1ccc(CC2SC(=O)NC2=O)cc1)c1ccccn1 (centres unmarked) [Rosiglitazone] | Embryo toxicity^c | TER | TER | NON^h |  |  |  | 18.9 µM |  |  | 21.8 µM |  |  |  |  |  |  | Targeted Biomarker Assay prediction [2, 13]: NON; Rodent in vivo test results: Embryotoxic ([6]; application set): +; Cmax [9, 17]: 1.7 µM |
| S=P(N1CC1)(N1CC1)N1CC1 [ThioTEPA] |  |  |  |  | Skeletal, embryo toxicity^c | TER | TER | 0.04 µM | TER |  |  | TER | 7 µM | TER^v |  | TER |  | Teratogenicity Potential (μM) Cell Viability [5, 18]: 0.5 µM; Viability Prediction [5, 19]: TER |
| Cytosine Arabinoside |  |  |  |  |  |  |  |  |  |  |  | TER |  | TER^n | TER^j |  | TER^i | Model Predictions ADMA/Cystine [11]: Ter; Preclinical in vivo and known human developmental effects ([1]; training set compounds): Limb; Teratogenicity Potential (μM) O/C Ratio ([2]; training set, interpolated concentration where o/c ratio dose response curve crosses teratogenicity threshold 0.88, 72 hours): 0.04 µM; Known Effect [8]: Ter; Teratogenicity Potential (μM) Cell Viability [5]: 0.1 µM; Cmax [9, 16]: 0.6 µM; Model Predictions Version 2.0 [12]: Ter; Model Predictions Version 2.1 [12]: Ter |
